Laboratory results: patent US20240285631A1, “METHODS OF TREATING VASCULAR MALFORMATIONS” (priority 2023, published 2024)

Test system: human umbilical vein endothelial cells
Assay: Proliferation of human umbilical vein endothelial cells assessed by EdU uptake
Type: cell-based
Settings: in vitro, dose response
From the text: FIG. 16 illustrates palbociclib, CVT-313 and ribociclib dose response effects on proliferation of human umbilical vein endothelial cells assessed by EdU uptake.
This example discusses that endothelial cell cycle dysregulation is a mechanism involved in the development of arterio-venous malformations in HHT, as well as other types of vascular malformations named above. Palbociclib, a FDA-approved cell cycle inhibitor, could be used to prevent arterio-venous and other malformations, including venous, capillary, lymphatic and cerebral cavernous malformations.

| SMILES | EC proliferation assessed by EdU uptake |
| --- | --- |
| COc1ccc(CNc2nc(N(CCO)CCO)nc3c2ncn3C(C)C)cc1 [CVT-313, 2-[2-hydroxyethyl-[6-[(4-methoxyphenyl)methylamino]-9-propan-2-ylpurin-2-yl]amino]ethanol] | inhibit EC proliferation |
| CN(C)C(=O)c1cc2cnc(Nc3ccc(N4CCNCC4)cn3)nc2n1C1CCCC1 [Ribociclib, 7-cyclopentyl-N,N-dimethyl-2-[(5-piperazin-1-ylpyridin-2-yl)amino]pyrrolo[2,3-d]pyrimidine-6-carboxamide] | inhibit EC proliferation |
